Reference: patent publication US20090298947A1, “POLYMORPHIC AND AMORPHOUS FORMS OF […] AMORPHOUS COMPOSITIONS” (PLIVA HRVATSKA D.O.O., priority 2008, published 2009)

Key:
[1] = Temperature dependent X-ray powder diffraction, heating of form II; format: physicochemical
Protocol: Temperature dependent X-ray powder diffraction (TDXD) was carried out with a Bruker AXS D8 θ-θ powder diffractometer with parafocusing Bragg-Brentano geometry using CuKα radiation (λ=1.5418 Å, U=34 kV, I=20 mA). The sample was placed on a Pt/Rh ribbon in a MRI high-temperature oven-camera and VPSlits were used to fix the constant irradiated length (20 mm). Data were scanned with an ultrafast detector LynxEye over the angular range 3-38° (2θ) with a step size of 0.0196° (2θ) and a counting time of 58.6 s step^−1. The heating and cooling process was controlled by Eurotherm 2404.
The sample of form II lacosamide (50 mg) was placed on a Pt/Rh ribbon in a MRI high-temperature oven-camera, and heated at rate of 10° C./min up to 100° C. The heating and cooling process was controlled by Eurotherm 2404.

[2] = Interconversion of form II to form I in stirred suspension, crystal form determined using XRPD; format: physicochemical
Protocol: Samples after being powdered in a mortar and pestle are applied directly on silicon plate holder. The X-ray powder diffraction pattern was measured with Philips X'Pert PRO X-ray powder diffractometer, equipped with Cu irradiation source=1.54060 ? ( ? ngstrom), X'C.elerator (2.022° 2Θ) detector. Scanning parameters: angle range: 3-40 deg., step size 0.0167, time per step 100 s, continuous scan. The accuracy of peak positions was defined as ±0.2 degrees due to experimental differences like instrumentations and sample preparations.
(§1) 27.0 g of Lacosamide was dissolved in 300 ml of ethyl acetate. Solution crystallized by cooling at about 42° C. Suspension was cooled to 40° C. and samples were taken in time intervals, filtered and crystal form was determined using XRPD. […] Crystals were filtered, washed with ethyl acetate and dried at 50° C./vacuo yielding 20.0 g Lacosamide form I.
as §1, with “30.0” for “27.0”, “239” for “300”, “acetate and 1 ml of water.” for “acetate.”, “46°” for “42°”, “with cold” for “with”, “22.9” for “20.0”

Compound | temperature of transformation of form II to form III ([1]; heated at 10° C./min up to 100° C.) | reversibility of transformation of form II to form III ([1]; sample cooled back to room temperature) | crystal form determined using XRPD ([2]; suspension in ethyl acetate and water (239 ml/1 ml), after 2 hours at 40° C.) | crystal form determined using XRPD ([2]; suspension in ethyl acetate and water (239 ml/1 ml), sample taken immediately when temperature reached 40° C.) | crystal form determined using XRPD ([2]; suspension in ethyl acetate, after 2 hours at 40° C.) | crystal form determined using XRPD ([2]; suspension in ethyl acetate, after 4 hours at 40° C.) | crystal form determined using XRPD ([2]; suspension in ethyl acetate, sample taken immediately when temperature reached 40° C.)
COC[C@@H](NC(C)=O)C(=O)NCc1ccccc1 [form II lacosamide, (R)-N-benzyl-2-acetamido-3-methoxypropionamide] | around 80 °C | completely reversible | – | – | – | – | –
COC[C@@H](NC(C)=O)C(=O)NCc1ccccc1 [Lacosamide, (R)-N-benzyl-2-acetamido-3-methoxypropionamide] | – | – | form I | mixture of form I and form II | mixture of form I and form II | form I | form II
